Measured values reported in paper PMC5823406, “Vehicle development, pharmacokinetics and toxicity of the anti-invasive agent 4-fluoro-3’,4’,5’-trimethoxychalcone in rodents” (PLoS ONE, 2018).
Where “and” joins values, the source holds several entries; their conditions need not be identical. Equal values may be shown once.

Experiment: Whole-blood PK study (IV, IP and PO) in male CD-1 mice
Assay type: in vivo, mouse
Procedure: Nine male CD-1 mice (25–35 g) were obtained from Hilltop Labs. Duration of acclimation was at least two days. Animals were randomly assigned to the three dose groups (IV, PO, intraperitoneal (IP), N = 3 per group), healthy at the start of the trial, housed one per cage (conventional type with wood chip bedding material), identified by a cage label and maintained in a well-controlled temperature (20–24 C) and humidity (30%-70%) environment with 12 h light/dark cycles. Animals intended for IV dosing were fitted with a jugular vein cannula (JVC, procedure see rat plasma PK study above). The study was not blinded. Food was withheld from the animals for a minimum of 12 h prior to test article administration until 4 h post-dose. Water was offered ad libitum.
C16 was dosed in cassette together with two undisclosed compounds of similar chemical structure. The dose of each test article was 1 mg/kg (IV, JVC, 0.5 mg/mL) or 10 mg/kg (IP and PO gavage, 2 mg/mL). Two respective dosing solutions were prepared (protocol see above) containing 0.5 and 2 mg/mL of C16 (and equal concentrations of the other two test articles) in 20% DMSO / 10% (DMSO / Cremophor EL 1:1) / 70% H2O. Formulations were prepared one day prior to dosing and stored at 4 °C.
Blood samples were taken pre-dose and 5 (except for PO administration), 15, 30 min, 1, 2, 4, and 8 h after dosing. The samples were collected via the tail vein or by cardiac puncture (8 h time point). Blood (25 μL) was collected and pipetted into a tube with 25 μL heparinized water (1 μL of sodium heparin (1000 unit/ml) + 24 μL water) within 30 seconds of collection. The sample was pipetted up and down five times, immediately frozen on dry ice and stored at -60°C to -80°C until analyzed. No necropsy was performed.
Pharmacokinetic parameters were estimated by a non-compartmental model using WinNonlin (v5.2.1 or higher) software. The maximum plasma/blood concentrations (c0) after IV dosing were estimated by extrapolation of the first two time points back to t = 0. The maximum blood concentration (cmax) and the time to reach maximum blood drug concentration (tmax) after PO dosing were derived from the data. The area under the time-concentration curve (AUC) was calculated using the linear trapezoidal rule with calculation to the last quantifiable data point, and with extrapolation to infinity if applicable. Plasma/blood half-life (t1/2) was calculated from 0.693/slope of the terminal elimination phase. Mean residence time (MRT) was calculated by dividing the area under the moment curve (AUMC) by the AUC. Clearance (CL) was calculated from dose/AUC. Steady-state volume of distribution (Vss) was calculated from CL*MRT. Bioavailability was determined by dividing the individual dose-normalized PO AUC values by the respective average dose-normalized intravenous (IV) AUC value. Samples that were below the limit of quantification were not used in the calculation of averages, and were treated as zero for pharmacokinetic data analysis. […]
Sprague-Dawley rats at 10 mg/kg (in 100% DMSO). […]
c Bioavailability determined by dividing the individual dose normalized oral AUC last by the average dose normalized intravenous AUC last value. […]
The dosing solution was prepared as a cassette to contain all three test articles in the same solutions using a vehicle
consisting of 20% DMSO/10% (DMSO/Cremophor EL 1:1)/70% Milli-Q water.
Individual blood concentrations and pharmacokinetic parameters are shown in Table H through Table J. All data are
expressed as ng/mL of the free drug. Samples that were below the limit of quantification were not used in the
calculation of averages. Concentration versus time data are plotted in Fig D through Fig F.
Table H. Individual blood concentrations (ng/mL) and PK parameters for C16 after IV administration in male CD-1 mice at 1 mg/kg.
t (h) 0 (pre-dose) BLOQ BLOQ BLOQ
(1 picture or pasted object on this page, not shown here)

[1] = mouse blood, IP 10 mg/kg, individual animals 4-6, 10 mg/kg
[2] = mouse blood, IV 1 mg/kg, individual animals 1-3, 1 mg/kg
[3] = mouse blood, PO 10 mg/kg, individual animals 7-9, 10 mg/kg
[4] = whole blood, male CD-1 mouse, IP 10 mg/kg, average

COc1cc(C(=O)/C=C/c2ccc(F)cc2)cc(OC)c1OC [C16, 4-fluoro-3’,4’,5’-trimethoxychalcone]
Tmax (male, CD-1, whole blood, mouse blood, PO 10 mg/kg, individual animals 7-9): 15 min | AUClast [1]: 127 ng·h/mL and 101 ng·h/mL | AUC∞ [1]: 134 ng·h/mL and 106 ng·h/mL | Bioavailability [1]: 63.7% and 50.6% | Dose-normalized AUClast [1]: 9.92 kg·ng·h/mL/mg and 12.7 kg·ng·h/mL/mg and 10.1 kg·ng·h/mL/mg | Dose-normalized AUC∞ [1]: 10.1 kg·ng·h/mL/mg and 13.4 kg·ng·h/mL/mg and 10.6 kg·ng·h/mL/mg | MRTlast [1]: 57 min and 55 min | cmax [1]: 106 ng/mL and 125 ng/mL | t1/2 [1]: 51.7 min and 54.1 min | AUClast [2]: 22.2 ng·h/mL and 17.5 ng·h/mL | AUC∞ [2]: 24.7 ng·h/mL and 19.6 ng·h/mL | CL [2]: 673 mL/min/kg and 850 mL/min/kg | MRTlast [2]: 23.9 min and 28.6 min | Vss [2]: 27.2 L/kg and 37.7 L/kg | c0 [2]: 75.8 ng/mL and 103 ng/mL and 49.1 ng/mL | t1/2 [2]: 46.8 min and 38.2 min | AUClast [3]: 15.1 ng·h/mL and 24.5 ng·h/mL | Bioavailability [3]: 7.56% and 12.3% | Dose-normalized AUClast [3]: 2.32 kg·ng·h/mL/mg and 1.51 kg·ng·h/mL/mg and 2.45 kg·ng·h/mL/mg | MRTlast [3]: 100 min and 103 min and 46 min | cmax [3]: 8.76 ng/mL and 17.8 ng/mL and 10.9 ng/mL | Adverse reactions (mouse, 1 mg/kg IV, 10 mg/kg IP or PO, cassette): No adverse reactions were observed | Individual blood concentration (mouse, IP 10 mg/kg, 0.083 h, animals 4-6, 10 mg/kg): 28.2 ng/mL and 68.6 ng/mL and 64.5 ng/mL | Individual blood concentration (mouse, IP 10 mg/kg, 0.25 h, animals 4-6, 10 mg/kg): 106 ng/mL and 125 ng/mL | Individual blood concentration (mouse, IP 10 mg/kg, 0.50 h, animals 4-6, 10 mg/kg): 94.4 ng/mL and 56.3 ng/mL | Individual blood concentration (mouse, IP 10 mg/kg, 1.0 h, animals 4-6, 10 mg/kg): 48.0 ng/mL and 32.1 ng/mL | Individual blood concentration (mouse, IP 10 mg/kg, 2.0 h, animals 4-6, 10 mg/kg): 13.3 ng/mL and 12.1 ng/mL | Individual blood concentration (mouse, IP 10 mg/kg, 4.0 h, animals 4-6, 10 mg/kg): 1.79 ng/mL and 5.29 ng/mL and 3.62 ng/mL | Individual blood concentration (mouse, IP 10 mg/kg, 8.0 h, animals 4-6): BLOQ (BLOQ: Below the limit of quantitation (1 ng/mL)) | Individual blood concentration (mouse, IV 1 mg/kg, 0.083 h, animals 1-3, 1 mg/kg): 54.4 ng/mL and 33.4 ng/mL | Individual blood concentration (mouse, IV 1 mg/kg, 0.25 h, animals 1-3, 1 mg/kg): 15.2 ng/mL and 15.4 ng/mL | Individual blood concentration (mouse, IV 1 mg/kg, 0.50 h, animals 1-3, 1 mg/kg): 8.57 ng/mL and 10.9 ng/mL | Individual blood concentration (mouse, IV 1 mg/kg, 1.0 h, animals 1-3, 1 mg/kg): 4.93 ng/mL and 3.76 ng/mL | Individual blood concentration (mouse, IV 1 mg/kg, 2.0 h, animals 1-3, 1 mg/kg): 2.21 ng/mL and 2.30 ng/mL | Individual blood concentration (mouse, IV 1 mg/kg, 4.0 h, animals 1-3): BLOQ (BLOQ: Below the limit of quantitation (1 ng/mL)) | Individual blood concentration (mouse, IV 1 mg/kg, 8.0 h, animals 1-3): BLOQ (BLOQ: Below the limit of quantitation (1 ng/mL)) | Individual blood concentration (mouse, PO 10 mg/kg, 0.25 h, animals 7-9, 10 mg/kg): 8.76 ng/mL and 17.8 ng/mL and 10.9 ng/mL | Individual blood concentration (mouse, PO 10 mg/kg, 0.50 h, animals 7-9, 10 mg/kg): 7.95 ng/mL and 12.4 ng/mL and 5.89 ng/mL | Individual blood concentration (mouse, PO 10 mg/kg, 1.0 h, animals 7-9, 10 mg/kg): 7.01 ng/mL and 5.15 ng/mL and 3.45 ng/mL | Individual blood concentration (mouse, PO 10 mg/kg, 2.0 h, animals 7-9, 10 mg/kg): 6.19 ng/mL and 4.28 ng/mL and 10.5 ng/mL | Individual blood concentration (mouse, PO 10 mg/kg, 4.0 h, animals 7-9, 10 mg/kg): 3.44 ng/mL and BLOQ (BLOQ: Below the limit of quantitation (1 ng/mL)) and 1.26 ng/mL | Individual blood concentration (mouse, PO 10 mg/kg, 8.0 h, animals 7-9): BLOQ (BLOQ: Below the limit of quantitation (1 ng/mL)) | Dose-normalized AUClast [4]: 10.9 kg·ng·h/mL/mg | Dose-normalized AUC∞ [4]: 11.4 kg·ng·h/mL/mg | Dose-normalized AUClast (whole blood, male CD-1 mouse, PO 10 mg/kg, average): 2.09 kg·ng·h/mL/mg
